From publication PMC9694777, “Fractionation and Extraction Optimization of Potentially Valuable Compounds and Their Profiling in Six Varieties of Two Nicotiana Species” (Molecules, 2022)
Converted amounts (≈) assume the structure as drawn. Values belong to the molecule of their own block, whether it stands above or below them.

Assay: physchem
Excerpt: Determination of the small molecule content in a complex plant matrix depends on the understanding of minimum solubility in the chosen extraction solvent. […] Often, tests on mixture are hardly reproducible on pure compounds if this aspect is not routinely considered in the workflow. We performed a general testing of best solvent systems to compare a wide range of small molecules of interest to understand the limitations of general approaches within a complex plant matrix such as Nicotiana.
For each of the 29 reference compounds, 2 mg was weighed into a 15 mL glass tube and dissolved in the minimum amount of the test solvent by gradually adding the solvent with a micropipette until complete dissolution or to a final volume of 10.0 mL. Seven solvents with polarities from nonpolar to polar were chosen for the test: hexane (C6H14), CH2Cl2, CH2Cl2/MeOH (4:1, v/v), EtOH, MeOH, MeOH/H2O (7:3, v/v), and H2O. The consumed solvents and their volumes were recorded for each reference compound.

[1] = 22 °C, organic solvent or mixture, thermodynamic from solid, Solubility in C6H14
[2] = 22 °C, organic solvent or mixture, thermodynamic from solid, Solubility in C6H14, solvent hexane (C6H14); room temperature (21–23 °C); 2 mg compound, solvent added until dissolution or 10.0 mL
[3] = 22 °C, organic solvent or mixture, thermodynamic from solid, Solubility in CH2Cl2, solvent dichloromethane (CH2Cl2); room temperature (21–23 °C)
[4] = 22 °C, organic solvent or mixture, thermodynamic from solid, Solubility in CH2Cl2/MeOH (4:1), solvent CH2Cl2/MeOH (4:1, v/v); room temperature (21–23 °C)
[5] = 22 °C, organic solvent or mixture, thermodynamic from solid, Solubility in EtOH, solvent ethanol; room temperature (21–23 °C)
[6] = 22 °C, organic solvent or mixture, thermodynamic from solid, Solubility in MeOH, solvent methanol; room temperature (21–23 °C)
[7] = 22 °C, organic solvent or mixture, thermodynamic from solid, Solubility in MeOH/H2O (7:3), solvent MeOH/H2O (7:3, v/v); room temperature (21–23 °C)
[8] = 22 °C, water, thermodynamic from solid, Solubility in H2O, solvent water; room temperature (21–23 °C)
[9] = solvent MeOH/H2O (7:3, v/v); room temperature (21–23 °C)
[10] = solvent ethanol; room temperature (21–23 °C)
[11] = solvent methanol; room temperature (21–23 °C)
[12] = solvent water; room temperature (21–23 °C)
[13] = CH2Cl2/MeOH (4:1, v/v), 22 °C, organic solvent or mixture, thermodynamic from solid, Solubility in CH2Cl2/MeOH (4:1), solvent CH2Cl2/MeOH (4:1, v/v); room temperature (21–23 °C)
[14] = MeOH/H2O (7:3, v/v), 22 °C, organic solvent or mixture, thermodynamic from solid, Solubility in MeOH/H2O (7:3), solvent MeOH/H2O (7:3, v/v); room temperature (21–23 °C)
[15] = dichloromethane (CH2Cl2), 22 °C, organic solvent or mixture, thermodynamic from solid, Solubility in CH2Cl2, solvent dichloromethane (CH2Cl2); room temperature (21–23 °C)
[16] = ethanol, 22 °C, organic solvent or mixture, thermodynamic from solid, Solubility in EtOH, solvent ethanol; room temperature (21–23 °C)
[17] = methanol, 22 °C, organic solvent or mixture, thermodynamic from solid, Solubility in MeOH, solvent methanol; room temperature (21–23 °C)
[18] = water, 22 °C, thermodynamic from solid, Solubility in H2O, solvent water; room temperature (21–23 °C)
[19] = hexane (C6H14), 22 °C, organic solvent or mixture, thermodynamic from solid, Solubility in C6H14, solvent hexane (C6H14); room temperature (21–23 °C); 2 mg compound, solvent added until dissolution or 10.0 mL
[20] = solvent CH2Cl2/MeOH (4:1, v/v); room temperature (21–23 °C)

Compound: c1cncc([C@@H]2CCCCN2)c1 [Anabasine]
Solubility in CH2Cl2/MeOH (4:1): 70.0 mg/mL (≈ 431 mM) | solubility [1]: < 0.19 mg/mL | solubility (22 °C, organic solvent or mixture, thermodynamic from solid, Solubility in CH2Cl2): 10.3 mg/mL (≈ 63.5 mM) | solubility (22 °C, organic solvent or mixture, thermodynamic from solid, Solubility in CH2Cl2/MeOH (4:1)): < 100 mg/mL | solubility (22 °C, organic solvent or mixture, thermodynamic from solid, Solubility in EtOH): 97 mg/mL (≈ 598 mM) | solubility (22 °C, organic solvent or mixture, thermodynamic from solid, Solubility in MeOH): 103 mg/mL (≈ 635 mM) | solubility (22 °C, organic solvent or mixture, thermodynamic from solid, Solubility in MeOH/H2O (7:3)): 109 mg/mL (≈ 672 mM) | solubility (22 °C, water, thermodynamic from solid, Solubility in H2O): < 0.19 mg/mL

Compound: C1=CCC(c2cccnc2)NC1 (centres unmarked) [Anatabine]
solubility [2]: 217 mg/mL (≈ 1350 mM) | solubility [3]: 442 mg/mL (≈ 2760 mM) | solubility [4]: 512 mg/mL (≈ 3200 mM) | solubility [5]: 490 mg/mL (≈ 3060 mM) | solubility [6]: 444 mg/mL (≈ 2770 mM) | solubility [7]: 193 mg/mL (≈ 1200 mM) | solubility [8]: 100 mg/mL (≈ 624 mM)

Compound: C=C1CC/C=C(/C)CC[C@@H]2[C@@H]1CC2(C)C [Caryophyllene]
Solubility in MeOH/H2O (7:3) [9]: NS (not soluble, insoluble in the solvent at the tested concentration range (0.19–558 mg/mL)) | Solubility in EtOH [10]: 196 mg/mL (≈ 959 mM) | Solubility in MeOH [11]: 36.2 mg/mL (≈ 177 mM) | Solubility in H2O [12]: NS (not soluble, insoluble in the solvent at the tested concentration range (0.19–558 mg/mL))

solubility [1]: < 0.19 mg/mL | solubility [13]: 208 mg/mL (≈ 1180 mM) | solubility [14]: 139 mg/mL (≈ 789 mM) | solubility [15]: 203 mg/mL (≈ 1150 mM) | solubility [16]: 190 mg/mL (≈ 1080 mM) | solubility [17]: 235 mg/mL (≈ 1330 mM) | solubility [18]: 145 mg/mL (≈ 823 mM)
Compound: CN1C(=O)CC[C@H]1c1cccnc1 [Cotinine]

solubility [13]: 348 mg/mL (≈ 1560 mM) | solubility [14]: 0.75 mg/mL (≈ 3.37 mM) | solubility [15]: 382 mg/mL (≈ 1720 mM) | solubility [16]: 376 mg/mL (≈ 1690 mM) | solubility [19]: 400 mg/mL (≈ 1800 mM) | solubility [17]: 466 mg/mL (≈ 2100 mM) | solubility [18]: < 0.19 mg/mL
Compound: CC(C)=CCC/C(C)=C/CC/C(C)=C/CO [Farnesol]

solubility [13]: 462 mg/mL (≈ 3000 mM) | solubility [14]: 77.3 mg/mL (≈ 501 mM) | solubility [15]: 440 mg/mL (≈ 2850 mM) | solubility [16]: 454 mg/mL (≈ 2940 mM) | solubility [19]: 422 mg/mL (≈ 2740 mM) | solubility [17]: 462 mg/mL (≈ 3000 mM) | solubility [18]: 0.57 mg/mL (≈ 3.7 mM)
Compound: C=CC(C)(O)CCC=C(C)C (centres unmarked) [Linalool]

Compound: CCCCC/C=C\C/C=C\CCCCCCCC(=O)O [Linoleic acid]
solubility [2]: 374 mg/mL (≈ 1330 mM) | solubility [3]: 504 mg/mL (≈ 1800 mM) | solubility [4]: 502 mg/mL (≈ 1790 mM) | solubility [5]: 558 mg/mL (≈ 1990 mM) | solubility [6]: 526 mg/mL (≈ 1880 mM) | solubility [7]: < 0.19 mg/mL | solubility [8]: < 0.19 mg/mL

Compound: CC1=C[C@H](O)CC(C)(C)[C@H]1/C=C/C(C)=C/C=C/C(C)=C/C=C/C=C(C)/C=C/C=C(C)/C=C/C1=C(C)C[C@@H](O)CC1(C)C [Lutein]
solubility [2]: < 0.19 mg/mL | solubility [3]: < 0.19 mg/mL | solubility [5]: < 0.19 mg/mL | solubility [6]: < 0.19 mg/mL | solubility [7]: < 0.19 mg/mL | solubility [8]: < 0.19 mg/mL | Solubility in CH2Cl2/MeOH (4:1) [20]: 4.66 mg/mL (≈ 8.19 mM) | Solubility in CH2Cl2/MeOH (4:1) (solvent CH2Cl2/MeOH (4:1, v/v); room temperature (21–23 °C); listed as lutein): < 100 mg/mL

Compound: c1cncc(C2=NCCC2)c1 [Myosmine]
solubility [2]: 4.27 mg/mL (≈ 29.2 mM) | solubility [3]: 194 mg/mL (≈ 1330 mM) | solubility [4]: 175 mg/mL (≈ 1200 mM) | solubility [5]: 418 mg/mL (≈ 2860 mM) | solubility [6]: 356 mg/mL (≈ 2440 mM) | solubility [7]: 231 mg/mL (≈ 1580 mM) | solubility [8]: 180 mg/mL (≈ 1230 mM)

Compound: C=CC(=C)CCCC(C)CCCC(C)CCCC(C)C (centres unmarked) [Neophytadiene]
Solubility in MeOH/H2O (7:3) [9]: NS (not soluble, insoluble in the solvent at the tested concentration range (0.19–558 mg/mL)) | Solubility in EtOH [10]: 57.5 mg/mL (≈ 206 mM) | Solubility in MeOH [11]: 4.08 mg/mL (≈ 14.6 mM) | Solubility in H2O [12]: NS (not soluble, insoluble in the solvent at the tested concentration range (0.19–558 mg/mL))

Compound: NC(=O)c1cccnc1 [Nicotinamide]
solubility [3]: < 0.19 mg/mL | solubility [5]: 20.8 mg/mL (≈ 170 mM) | solubility [7]: 114 mg/mL (≈ 933 mM) | solubility [19]: < 0.19 mg/mL | solubility [17]: 66.3 mg/mL (≈ 543 mM) | Solubility in CH2Cl2/MeOH (4:1) [20]: 37.3 mg/mL (≈ 305 mM) | Solubility in CH2Cl2/MeOH (4:1) (solvent CH2Cl2/MeOH (4:1, v/v); room temperature (21–23 °C); listed as nicotinamide): < 100 mg/mL | solubility [18]: 150 mg/mL (≈ 1230 mM)
